From paper PMC5520047, “Prioritizing multiple therapeutic targets in parallel using automated DNA-encoded library screening” (Nature Communications, 2017)
≈ marks a conversion by molar mass, not a printed value. Entries after “also recorded” stand apart in the source; their conditions may differ. Like-named read-outs stand apart in the source and are kept apart here.

Tests used:
[1] = molecular target: A. baumannii UppS (Acinetobacter baumannii, UniProt V5VCK8); test: UppS biochemical assay (pyrophosphatase / Biomol Green); details: average of two replicates with s.d.
A. baumannii UppS, sequence (V5VCK8 entry or part of it): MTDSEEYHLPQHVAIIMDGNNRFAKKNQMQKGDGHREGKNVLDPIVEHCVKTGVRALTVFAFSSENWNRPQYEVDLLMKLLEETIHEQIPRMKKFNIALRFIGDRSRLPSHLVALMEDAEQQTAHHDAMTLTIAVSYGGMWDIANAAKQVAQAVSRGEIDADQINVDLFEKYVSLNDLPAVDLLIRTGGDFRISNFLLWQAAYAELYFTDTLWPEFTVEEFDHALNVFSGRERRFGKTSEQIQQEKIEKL
Text: (§1) 368 Both the S. aureus and A. baumannii UppS in vitro biochemical assay use a pyrophosphatase and Biomol
(§2) 369 Green Phosphate detection reagent to assess catalytic activity. These assays were based on previously
(§3) 370 described assays both within GSK and others11-13. Briefly, the enzyme will add up to 8 isopentyl
(§4) 371 pyrophosphate (IPP) units onto a farnesyl pyrophosphate FPP molecule, resulting in the production of 8
(§5) 372 moles of inorganic pyrophosphates per mole of substrate added. The pyrophosphate is then converted
(§6) 373 to inorganic phosphate by a pyrophosphatase, and this phosphate is detected by Biomol Green. The
(§7) 374 assay is conducted in buffer containing 100 mM Trizma pH7.5, 1 mM MgCl2, 6 mM CHAPS and 0.005% […]
(§8) 378 10 μL. The detection reagent was incubated for 20 min and 610-620 nm light was monitored by a Perkin
(§9) 379 Elmer Envision plate reader. […]
(§10) 383 Standard deviation values were calculated using the n-1 method. […]
(§11) 388 A fluorescence intensity coupled assay was used to measure the in vitro biochemical activity of S. aureus […]
(§12) 391 enzyme then digests the liberated peptide GFGF-AFC releasing the AFC causing a fluorescence increase
(§13) 392 monitored by an Envision plate reader. […]
(§14) 395 90 minute incubation with quench/detection solution, plates were read on an envision plate reader with […]
(§15) 406 A fluorescence intensity coupled assay was used to measure the in vitro biochemical activity of M. […]

[2] = tested on: S. aureus WCUH29 wild type; test: MIC broth microdilution; assay type: cell-based, Staphylococcus aureus; details: for MIC: Staphylococcus aureus, WCUH29WILDTYPE
[3] = tested on: Acinetobacter baumannii BM4652 ΔadeABC ΔadeIJK (efflux mutant); test: MIC broth microdilution; assay type: cell-based
[4] = tested on: Escherichia coli 7623 ΔtolC; test: MIC broth microdilution; assay type: cell-based
[5] = tested on: Klebsiella pneumoniae 1161486a ΔtolC; test: MIC broth microdilution; assay type: cell-based
[6] = tested on: Pseudomonas aeruginosa PA0322 Δ(mexAB-oprM) Δ(mexCD-oprJ) Δ(mexEF-oprN); test: MIC broth microdilution; assay type: cell-based
[7] = tested on: Acinetobacter baumannii ATCC 19606-1 ΔLpxC; test: MIC broth microdilution; assay type: cell-based; details: ATCC19606
[8] = tested on: Haemophilus influenzae H128 ΔacrB; test: MIC broth microdilution; assay type: cell-based
[9] = tested on: A. baumannii BM4652 efflux mutant, pRK415 and pRK415-UppS; test: microbe, parasite or virus in culture; assay type: cell-based, Acinetobacter baumannii
[10] = molecular target: S. aureus methionine aminopeptidase, MetAP (Staphylococcus aureus, UniProt P0A078); test: MetAP biochemical assay (fluorescence intensity coupled); details: average of two replicates with s.d.
S. aureus methionine aminopeptidase, MetAP, sequence (P0A078 whole entry): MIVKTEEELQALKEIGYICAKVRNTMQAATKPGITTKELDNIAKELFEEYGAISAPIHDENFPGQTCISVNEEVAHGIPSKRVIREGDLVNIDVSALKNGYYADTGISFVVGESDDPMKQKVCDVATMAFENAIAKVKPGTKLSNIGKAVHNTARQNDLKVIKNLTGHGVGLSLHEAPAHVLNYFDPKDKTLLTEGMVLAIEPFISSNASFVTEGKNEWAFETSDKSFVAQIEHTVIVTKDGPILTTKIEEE
Text: as §1, §2, §3, §4, §5, §6, §7, §8, §9, §10, §11, §12, §13, §14, §15

Row | SMILES | IC50 [1] [µM] | MIC [2] [mg/L] | MIC ([3]; A. baumannii BM652 efflux strain) [mg/L] | MIC ([3]; A. baumannii BM4652 ΔadeABC ΔadeIJK efflux mutant) [mg/L] | MIC [4] [mg/L] | MIC [5] [mg/L] | MIC [6] [mg/L] | MIC [7] [mg/L] | MIC [8] [mg/L] | MIC ([9]; A. baumannii BM4652 efflux mutant + pRK415-UppS, 30 μg/ml polymyxin B nonapeptide) [mg/L] | MIC ([9]; A. baumannii BM4652 efflux mutant + pRK415, 30 μg/ml polymyxin B nonapeptide) [mg/L] | MIC ([9]; Acinetobacter baumannii, A. baumannii BM4652 efflux mutant + pRK415-UppS, 30 μg/ml polymyxin B nonapeptide) [mg/L] | MIC ([9]; Acinetobacter baumannii, A. baumannii BM4652 efflux mutant + pRK415, 30 μg/ml polymyxin B nonapeptide) [mg/L] | MIC ([9]; Acinetobacter baumannii, A. baumannii BM4652 efflux mutant, N/A (no plasmid), 30 μg/ml polymyxin B nonapeptide) [mg/L] | MIC ([9]; Acinetobacter baumannii, without the permeabilising agent) [mg/L] | Fold MIC increase ([9]; pRK415-UppS overexpressing strain relative to parent strain, 30 μg/ml polymyxin B nonapeptide) [fold] | IC50 [10] [µM] | antibacterial activity ([2]; S. aureus) | MIC ([2]; S. aureus WCUH29 wild type, read-out: MIC) [mg/L]
1 | CNC(=O)[C@@H](NC(=O)c1cc(Cl)c(Cl)cc1C(=O)NCc1ccc(C(C)(C)C)cc1)C(C)(C)C [Compound 5] | 0.043 ± 0.025 | > 128 | > 128 | > 128 | > 128 | > 128 | > 128 | < 0.125 | 1 (≈ 1.97 µM) | 2 | 0.25 | 2 | 0.25 | 0.25 | > 128 | 8 | – | – | –
2 | Cc1nnc(Cn2c(C(C)Cc3ccc4c(c3)OCO4)nc3cccc(Cl)c32)[nH]1 (stereo not shown) [Compound 3] | – | – | – | – | – | – | – | – | – | – | – | – | – | – | – | – | 0.35 ± 0.01 | lacked S. aureus antibacterial activity; also recorded: lacks antibacterial activity | > 128
